Assay results: ChEMBL document CHEMBL4308864, “Targeting tyrosine kinase: Development of acridone - pyrrole - oxindole hybrids against human breast cancer” (2019)

Columns and labels:
Assay type in all cases: functional
[1] = tested on: CCRF-CEM; assay: Growth inhibition of human CCRF-CEM cells assessed as cell growth at 10^-5 M incubated for 48 hrs by sulforhodamine B assay relative to control; conditions: read-out: Activity
[2] = tested on: HL-60(TB); assay: Growth inhibition of human HL-60(TB) cells assessed as cell growth at 10^-5 M incubated for 48 hrs by sulforhodamine B assay relative to control; conditions: HL-60, 48 h, read-out: Activity
[3] = tested on: EKVX; assay: Growth inhibition of human EKVX cells assessed as cell growth at 10^-5 M incubated for 48 hrs by sulforhodamine B assay relative to control; conditions: read-out: Activity
[4] = tested on: HOP-92; assay: Growth inhibition of human HOP92 cells assessed as cell growth at 10^-5 M incubated for 48 hrs by sulforhodamine B assay relative to control; conditions: HOP-92, 48 h, read-out: Activity
[5] = tested on: NCI-H226; assay: Growth inhibition of human NCI-H226 cells assessed as cell growth at 10^-5 M incubated for 48 hrs by sulforhodamine B assay relative to control; conditions: NCI-H226, 48 h, read-out: Activity
[6] = tested on: NCI-H322M; assay: Growth inhibition of human NCI-H322M cells assessed as cell growth at 10^-5 M incubated for 48 hrs by sulforhodamine B assay relative to control; conditions: read-out: Activity
[7] = tested on: COLO 205; assay: Growth inhibition of human COLO205 cells assessed as cell growth at 10^-5 M incubated for 48 hrs by sulforhodamine B assay relative to control; conditions: COLO 205, 48 h, read-out: Activity
[8] = tested on: HCT-15; assay: Growth inhibition of human HCT15 cells assessed as cell growth at 10^-5 M incubated for 48 hrs by sulforhodamine B assay relative to control; conditions: HCT-15, 48 h, read-out: Activity
[9] = tested on: HT-29; assay: Growth inhibition of human HT-29 cells assessed as cell growth at 10^-5 M incubated for 48 hrs by sulforhodamine B assay relative to control; conditions: HT-29, 48 h, read-out: Activity
[10] = tested on: KM12; assay: Growth inhibition of human KM12 cells assessed as cell growth at 10^-5 M incubated for 48 hrs by sulforhodamine B assay relative to control; conditions: KM12, 48 h, read-out: Activity
[11] = tested on: SF-295; assay: Growth inhibition of human SF295 cells assessed as cell growth at 10^-5 M incubated for 48 hrs by sulforhodamine B assay relative to control; conditions: SF-295, 48 h, read-out: Activity
[12] = tested on: SF-539; assay: Growth inhibition of human SF539 cells assessed as cell growth at 10^-5 M incubated for 48 hrs by sulforhodamine B assay relative to control; conditions: SF-539, 48 h, read-out: Activity
[13] = tested on: SNB-75; assay: Growth inhibition of human SNB75 cells assessed as cell growth at 10^-5 M incubated for 48 hrs by sulforhodamine B assay relative to control; conditions: SNB-75, 48 h, read-out: Activity
[14] = tested on: LOX IMVI; assay: Growth inhibition of human LOXIMVI cells assessed as cell growth at 10^-5 M incubated for 48 hrs by sulforhodamine B assay relative to control; conditions: read-out: Activity
[15] = tested on: M14; assay: Growth inhibition of human M14 cells assessed as cell growth at 10^-5 M incubated for 48 hrs by sulforhodamine B assay relative to control; conditions: M14, 48 h, read-out: Activity
[16] = tested on: MDA-MB-435; assay: Growth inhibition of human MDA-MB-435 cells assessed as cell growth at 10^-5 M incubated for 48 hrs by sulforhodamine B assay relative to control; conditions: MDA-MB-435, 48 h, read-out: Activity
[17] = tested on: SK-MEL-28; assay: Growth inhibition of human SK-MEL-28 cells assessed as cell growth at 10^-5 M incubated for 48 hrs by sulforhodamine B assay relative to control; conditions: SK-MEL-28, 48 h, read-out: Activity
[18] = tested on: UACC-62; assay: Growth inhibition of human UACC62 cells assessed as cell growth at 10^-5 M incubated for 48 hrs by sulforhodamine B assay relative to control; conditions: UACC-62, 48 h, read-out: Activity
[19] = tested on: OVCAR-8; assay: Growth inhibition of human OVCAR8 cells assessed as cell growth at 10^-5 M incubated for 48 hrs by sulforhodamine B assay relative to control; conditions: OVCAR-8, 48 h, read-out: Activity
[20] = tested on: NCI/ADR-RES; assay: Growth inhibition of human NCI/ADR-RES cells assessed as cell growth at 10^-5 M incubated for 48 hrs by sulforhodamine B assay relative to control; conditions: read-out: Activity
[21] = tested on: SK-OV-3; assay: Growth inhibition of human SKOV3 cells assessed as cell growth at 10^-5 M incubated for 48 hrs by sulforhodamine B assay relative to control; conditions: SK-OV-3, 48 h, read-out: Activity
[22] = tested on: 786-0; assay: Growth inhibition of human 786-0 cells assessed as cell growth at 10^-5 M incubated for 48 hrs by sulforhodamine B assay relative to control; conditions: 786-0, 48 h, read-out: Activity
[23] = tested on: A498; assay: Growth inhibition of human A498 cells assessed as cell growth at 10^-5 M incubated for 48 hrs by sulforhodamine B assay relative to control; conditions: A498, 48 h, read-out: Activity
[24] = tested on: CAKI-1; assay: Growth inhibition of human Caki1 cells assessed as cell growth at 10^-5 M incubated for 48 hrs by sulforhodamine B assay relative to control; conditions: CAKI-1, 48 h, read-out: Activity
[25] = tested on: TK-10; assay: Growth inhibition of human TK10 cells assessed as cell growth at 10^-5 M incubated for 48 hrs by sulforhodamine B assay relative to control; conditions: TK-10, 48 h, read-out: Activity
[26] = tested on: UO-31; assay: Growth inhibition of human UO31 cells assessed as cell growth at 10^-5 M incubated for 48 hrs by sulforhodamine B assay relative to control; conditions: UO-31, 48 h, read-out: Activity
[27] = tested on: DU-145; assay: Growth inhibition of human DU145 cells assessed as cell growth at 10^-5 M incubated for 48 hrs by sulforhodamine B assay relative to control; conditions: DU-145, 48 h, read-out: Activity
[28] = tested on: MCF7; assay: Growth inhibition of human MCF7 cells at 10^-5 M incubated for 48 hrs by sulforhodamine B assay relative to control; conditions: MCF7, 48 h, read-out: GI
[29] = tested on: MDA-MB-231; assay: Growth inhibition of human MDA-MB-231 cells assessed as cell growth at 10^-5 M incubated for 48 hrs by sulforhodamine B assay relative to control; conditions: MDA-MB-231, 48 h, read-out: Activity
[30] = tested on: Hs-578T; assay: Growth inhibition of human Hs578T cells assessed as cell growth at 10^-5 M incubated for 48 hrs by sulforhodamine B assay relative to control; conditions: read-out: Activity
[31] = tested on: BT-549; assay: Growth inhibition of human BT549 cells assessed as cell growth at 10^-5 M incubated for 48 hrs by sulforhodamine B assay relative to control; conditions: BT-549, 48 h, read-out: Activity
[32] = tested on: T47D; assay: Growth inhibition of human T47D cells at 10^-5 M incubated for 48 hrs by sulforhodamine B assay relative to control; conditions: read-out: GI
[33] = tested on: MDA-MB-468; assay: Growth inhibition of human MDA-MB-468 cells at 10^-5 M incubated for 48 hrs by sulforhodamine B assay relative to control; conditions: MDA-MB-468, 48 h, read-out: GI

Structure (SMILES) | growth at 10 µM [1] [%] | growth at 10 µM [2] [%] | growth at 10 µM [3] [%] | growth at 10 µM [4] [%] | growth at 10 µM [5] [%] | growth at 10 µM [6] [%] | growth at 10 µM [7] [%] | growth at 10 µM [8] [%] | growth at 10 µM [9] [%] | growth at 10 µM [10] [%] | growth at 10 µM [11] [%] | growth at 10 µM [12] [%] | growth at 10 µM [13] [%] | growth at 10 µM [14] [%] | growth at 10 µM [15] [%] | growth at 10 µM [16] [%] | growth at 10 µM [17] [%] | growth at 10 µM [18] [%] | growth at 10 µM [19] [%] | growth at 10 µM [20] [%] | also measured
O=C1Nc2ccccc2/C1=C/c1cccn1CCCCCn1c2ccccc2c(=O)c2ccccc21 | 44.9 | 47.6 | 71.8 | 65.5 | 70 | 98.8 | 56.2 | 28.9 | 89.5 | 12.1 | 93.1 | 94.2 | 86.7 | 80.3 | 73.3 | 93.6 | 88.1 | 48.2 | 45.6 | 60.9 | growth at 10 µM [21]: 90.4%; growth at 10 µM [22]: 105%; growth at 10 µM [23]: 108%; growth at 10 µM [24]: 65.9%; growth at 10 µM [25]: 93.8%; growth at 10 µM [26]: 49.3%; growth at 10 µM [27]: 97.9%; inhibition of growth at 10 µM [28]: 99%; growth at 10 µM [29]: 69.3%; growth at 10 µM [30]: 90.5%; growth at 10 µM [31]: 65.5%; inhibition of growth at 10 µM [32]: 98%; inhibition of growth at 10 µM [33]: 62%
O=C1/C(=C\c2cccn2CCCCn2c3ccccc3c(=O)c3ccccc32)c2ccccc2N1c1c(Cl)cccc1Cl | 103 | 106 | 88.8 | 71 | 89.5 | 103 | 70 | 83.5 | 110 | 90.8 | 98.8 | 98.9 | 91.9 | 98.1 | 96 | 103 | 111 | 82.1 | 98.3 | 101 | growth at 10 µM [21]: 105%; growth at 10 µM [22]: 103%; growth at 10 µM [23]: 116%; growth at 10 µM [24]: 87.4%; growth at 10 µM [25]: 108%; growth at 10 µM [26]: 80.8%; growth at 10 µM [27]: 111%; inhibition of growth at 10 µM [28]: 68%; growth at 10 µM [29]: 98.4%; growth at 10 µM [30]: 103%; growth at 10 µM [31]: 105%; inhibition of growth at 10 µM [32]: 33%; inhibition of growth at 10 µM [33]: 28%
O=C1/C(=C\c2cccn2CCCCCCn2c3ccccc3c(=O)c3ccccc32)c2ccccc2N1c1c(Cl)cccc1Cl | 108 | 103 | 89.5 | 75.3 | 81.9 | 98.6 | 92.8 | 67.1 | 106 | 69.8 | 99.2 | 104 | 95.2 | 98.5 | 98 | 105 | 108 | 85.5 | 98.5 | 104 | growth at 10 µM [21]: 97.4%; growth at 10 µM [22]: 103%; growth at 10 µM [23]: 110%; growth at 10 µM [24]: 87.8%; growth at 10 µM [25]: 91%; growth at 10 µM [26]: 70.2%; growth at 10 µM [27]: 113%; inhibition of growth at 10 µM [28]: 85%; growth at 10 µM [29]: 101%; growth at 10 µM [30]: 103%; growth at 10 µM [31]: 104%; inhibition of growth at 10 µM [32]: 57%; inhibition of growth at 10 µM [33]: 56%
O=C1/C(=C\c2cccn2CCCCCn2c3ccccc3c(=O)c3ccccc32)c2ccccc2N1c1c(Cl)cccc1Cl | 100 | 96.8 | 94.6 | 65.6 | 91.6 | 110 | 72.2 | 59.8 | 96.2 | 69.4 | 103 | 97 | 87.3 | 96.6 | 97.2 | 108 | 113 | 82.6 | 97.7 | 97.3 | growth at 10 µM [21]: 95.6%; growth at 10 µM [22]: 104%; growth at 10 µM [23]: 106%; growth at 10 µM [24]: 74.4%; growth at 10 µM [25]: 99.8%; growth at 10 µM [26]: 75.5%; growth at 10 µM [27]: 111%; inhibition of growth at 10 µM [28]: 87%; growth at 10 µM [29]: 97.5%; growth at 10 µM [30]: 101%; growth at 10 µM [31]: 97.1%; inhibition of growth at 10 µM [32]: 72%; inhibition of growth at 10 µM [33]: 39%
O=C1Nc2ccccc2/C1=C/c1cccn1CCCCCCn1c2ccccc2c(=O)c2ccccc21 | 49.8 | 54.5 | 65.3 | 56.4 | 72.7 | 97.9 | 50.5 | 23 | 92.9 | 12.8 | 97.2 | 100 | 92.3 | 91.2 | 78.2 | 96.7 | 111 | 50.3 | 47.5 | 71.8 | growth at 10 µM [21]: 87.2%; growth at 10 µM [22]: 103%; growth at 10 µM [23]: 103%; growth at 10 µM [24]: 72.6%; growth at 10 µM [25]: 78.7%; growth at 10 µM [26]: 56.2%; growth at 10 µM [27]: 94%; inhibition of growth at 10 µM [28]: 99%; growth at 10 µM [29]: 75.4%; growth at 10 µM [30]: 96.3%; growth at 10 µM [31]: 63.5%; inhibition of growth at 10 µM [32]: 100%; inhibition of growth at 10 µM [33]: 92%
